Measurements reported in US9695155B2, “Herbicidal substituted pyrimidinyloxy benzene compounds” (E. I. DU PONT DE NEMOURS AND COMPANY, priority 2013, dated 2017).

Columns and labels:
[1] = system: barnyardgrass; assay: Test B flooded paddy test; format: in vivo, Echinochloa crus-galli; details: Flood, 250 g ai/ha; 0 to 100 scale where 0 is no effect and 100 is complete control
Method in brief: (§1)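 Visual ratings on a 0 to 100 scale, where 100 means complete control, compared treated plants with controls after 13 to 15 days in a greenhouse. Treatment went into paddy water 3 cm deep over the soil, applied to plants at the 2-leaf stage.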

[2] = system: pigweed; assay: Test A preemergence; format: in vivo, Amaranthus retroflexus; details: for Pigweed plant response rating: 500 g ai/ha
Method in brief: (§2)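 Injury scores run from 0, no effect, to 100, complete control, judged by eye against untreated plants roughly 10 days after treatment. Chemicals carried a surfactant in a non-phytotoxic solvent and went onto loam–sand soil preemergence or onto one- to two-leaf seedlings postemergence.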

[3] = system: morningglory; assay: Test A postemergence; format: in vivo, Ipomoea spp.
Method in brief: as §2

[4] = system: giant foxtail; assay: Test C postemergence; format: in vivo, Setaria faberii; details: for Plant response rating, Foxtail, Giant / Foxtail, Giant plant response rating: scale 0 to 100 (0 no effect, 100 complete control)
Method in brief: (§3)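 Greenhouse herbicide screen. Pre: seeded loam/sand, sprayed at planting. Post: 1–4 leaf plants (2–18 cm) in peat-based mix. Formulation: solvent mixture + surfactant, non-phytotoxic. Readout: visual % control vs untreated, 13–15 d; dash = not tested.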

[5] = system: corn; assay: Test C postemergence; format: in vivo, Zea mays; details: for Plant response rating, Corn / Corn plant response rating: scale 0 to 100 (0 no effect, 100 complete control)
Method in brief: as §3

[6] = system: barnyardgrass; assay: Test A preemergence; format: in vivo, Echinochloa crus-galli; details: for Barnyardgrass plant response rating: 500 g ai/ha
Method in brief: as §2

[7] = system: Italian ryegrass; assay: Test C postemergence; format: in vivo, Lolium multiflorum; details: for Plant response rating, Ryegrass, Italian / Ryegrass, Italian plant response rating: scale 0 to 100 (0 no effect, 100 complete control)
Method in brief: as §3

[8] = system: pigweed; assay: Test A postemergence; format: in vivo, Amaranthus retroflexus
Method in brief: as §2

[9] = system: sedge, umbrella; assay: Test B flooded paddy test; format: in vivo, Cyperus difformis; details: Flood, 250 g ai/ha; 0 to 100 scale where 0 is no effect and 100 is complete control
Method in brief: as §1

[10] = system: large (Lg) crabgrass; assay: Test C postemergence; format: in vivo, Digitaria sanguinalis; details: for Plant response rating, Crabgrass, Large / Crabgrass, Large plant response rating: scale 0 to 100 (0 no effect, 100 complete control)
Method in brief: as §3

[11] = system: blackgrass; assay: Test C postemergence; format: in vivo, Alopecurus myosuroides; details: for Plant response rating, Blackgrass / Blackgrass plant response rating: scale 0 to 100 (0 no effect, 100 complete control)
Method in brief: as §3

[12] = system: johnsongrass; assay: Test C postemergence; format: in vivo, Sorghum halepense; details: for Plant response rating, Johnsongrass / Johnsongrass plant response rating: scale 0 to 100 (0 no effect, 100 complete control)
Method in brief: as §3

[13] = system: morningglory; assay: Test A preemergence; format: in vivo, Ipomoea spp.; details: for Morningglory plant response rating: 500 g ai/ha
Method in brief: as §2

[14] = system: chickweed; assay: Test C postemergence; format: in vivo, Stellaria media; details: for Plant response rating, Chickweed / Chickweed plant response rating: scale 0 to 100 (0 no effect, 100 complete control)
Method in brief: as §3

[15] = system: giant foxtail; assay: Test A preemergence; format: in vivo, Setaria faberii; details: for Foxtail, Giant plant response rating: 500 g ai/ha
Method in brief: as §2

[16] = 125 g ai/ha, 0 to 100 scale where 0 is no effect and 100 is complete control
[17] = 0 to 100 scale, 0 no effect, 100 complete control, approx. 10 days
[18] = 500 g ai/ha, 0 to 100 scale, 0 no effect, 100 complete control
[19] = Postemergence, 31 g ai/ha, 13 to 15 days
[20] = 0 to 100 scale where 0 is no effect and 100 is complete control
[21] = 500 g ai/ha, 0 to 100 scale where 0 is no effect and 100 is complete control
[22] = 16 g ai/ha, postemergence, 0 is no effect, 100 is complete control
[23] = 31 g ai/ha, postemergence, visual rating, 13 to 15 days
[24] = 125 g ai/ha, postemergence, visual rating
[25] = Postemergence, 62 g ai/ha, 13 to 15 days

## N#Cc1cccc(Oc2ncc(Br)cn2)c1-n1cc(Br)cn1 [Compound 57]
[1]
  Plant response rating, Barnyardgrass: 0
[2]; [16]
  Plant response rating, Pigweed: 100
[2]; [17]
  Pigweed plant response rating: 100
[3]; [16]
  Plant response rating, Morningglory: 90
[3]; [18]
  Plant response rating, Morningglory: 80
[4]; 125 g ai/ha, postemergence
  Plant response rating (0 to 100), Foxtail, Giant: 15
[4]; 250 g ai/ha, postemergence
  Plant response rating (0 to 100), Foxtail, Giant: 30
[4]; [19]
  Plant response rating, Foxtail, Giant: 10
[4]; Postemergence, 62 g ai/ha
  Plant response rating, Foxtail, Giant: 10
[5]; 125 g ai/ha, postemergence
  Plant response rating (0 to 100), Corn: 20
[5]; 250 g ai/ha, postemergence
  Plant response rating (0 to 100), Corn: 20
[5]; [19]
  Plant response rating, Corn: 10
[5]; Postemergence, 62 g ai/ha
  Plant response rating, Corn: 15
[6]; [16]
  Plant response rating, Barnyardgrass: 60
[6]; [17]
  Barnyardgrass plant response rating: 100
[7]; 125 g ai/ha, postemergence
  Plant response rating (0 to 100), Ryegrass, Italian: 10
[7]; 250 g ai/ha, postemergence
  Plant response rating (0 to 100), Ryegrass, Italian: 15
[7]; [19]
  Plant response rating, Ryegrass, Italian: 0
[7]; Postemergence, 62 g ai/ha
  Plant response rating, Ryegrass, Italian: 5
[8]; [16]
  Plant response rating, Pigweed: 100
[8]; [18]
  Plant response rating, Pigweed: 100
[9]
  Plant response rating, Sedge, Umbrella: 80
[10]; 125 g ai/ha, postemergence
  Plant response rating (0 to 100), Crabgrass, Large: 10
[10]; 250 g ai/ha, postemergence
  Plant response rating (0 to 100), Crabgrass, Large: 30
[10]; [19]
  Plant response rating, Crabgrass, Large: 5
[10]; Postemergence, 62 g ai/ha
  Plant response rating, Crabgrass, Large: 5
[11]; 125 g ai/ha, postemergence
  Plant response rating (0 to 100), Blackgrass: 30
[11]; 250 g ai/ha, postemergence
  Plant response rating (0 to 100), Blackgrass: 30
[11]; [19]
  Plant response rating, Blackgrass: 10
[11]; Postemergence, 62 g ai/ha
  Plant response rating, Blackgrass: 15
[12]; 125 g ai/ha, postemergence
  Plant response rating (0 to 100), Johnsongrass: 5
[12]; 250 g ai/ha, postemergence
  Plant response rating (0 to 100), Johnsongrass: 20
[12]; [19]
  Plant response rating, Johnsongrass: 5
[12]; Postemergence, 62 g ai/ha
  Plant response rating, Johnsongrass: 5
[13]; [16]
  Plant response rating, Morningglory: 0
[13]; [17]
  Morningglory plant response rating: 40
[14]; 125 g ai/ha, postemergence
  Plant response rating (0 to 100), Chickweed: 80
[14]; 250 g ai/ha, postemergence
  Plant response rating (0 to 100), Chickweed: 80
[14]; [19]
  Plant response rating, Chickweed: 50
[14]; Postemergence, 62 g ai/ha
  Plant response rating, Chickweed: 50
[15]; [16]
  Plant response rating, Foxtail, Giant: 80
[15]; [17]
  Foxtail, Giant plant response rating: 100

## Clc1cnc(Oc2cccc(Br)c2-n2cc(Cl)cn2)nc1 [Compound 221]
[1]
  Plant response rating, Barnyardgrass: 0
[2]; 125 g ai/ha
  Pigweed plant response rating (0 to 100 scale): 100
[2]; [20]
  Pigweed plant response rating: 100
[3]; [16]
  Morningglory plant response rating: 90
[3]; [21]
  Plant response rating, Morningglory: 100
[4]; [22]
  Plant response rating (0 to 100), Foxtail, Giant: 0
[4]; [23]
  Foxtail, Giant plant response rating: 5
[4]; [24]
  Plant response rating, Foxtail, Giant: 5
[4]; [25]
  Plant response rating, Foxtail, Giant: 5
[5]; [22]
  Plant response rating (0 to 100), Corn: 0
[5]; [23]
  Corn plant response rating: 5
[5]; [24]
  Plant response rating, Corn: 10
[5]; [25]
  Plant response rating, Corn: 10
[6]; 125 g ai/ha
  Barnyardgrass plant response rating (0 to 100 scale, 0 is no effect, 100 is complete control): 10
[6]; [20]
  Barnyardgrass plant response rating: 90
[7]; [22]
  Plant response rating (0 to 100), Ryegrass, Italian: 0
[7]; [23]
  Ryegrass, Italian plant response rating: 0
[7]; [24]
  Plant response rating, Ryegrass, Italian: 5
[7]; [25]
  Plant response rating, Ryegrass, Italian: 5
[8]; [16]
  Pigweed plant response rating: 100
[8]; [21]
  Plant response rating, Pigweed: 100
[9]
  Plant response rating, Sedge, Umbrella: 0
[10]; [22]
  Plant response rating (0 to 100), Crabgrass, Large: 5
[10]; [23]
  Crabgrass, Large plant response rating: 5
[10]; [24]
  Plant response rating, Crabgrass, Large: 25
[10]; [25]
  Plant response rating, Crabgrass, Large: 5
[11]; [22]
  Plant response rating (0 to 100), Blackgrass: 0
[11]; [23]
  Blackgrass plant response rating: 0
[11]; [24]
  Plant response rating, Blackgrass: 5
[11]; [25]
  Plant response rating, Blackgrass: 5
[12]; [22]
  Plant response rating (0 to 100), Johnsongrass: 5
[12]; [23]
  Johnsongrass plant response rating: 5
[12]; [24]
  Plant response rating, Johnsongrass: 20
[12]; [25]
  Plant response rating, Johnsongrass: 5
[13]; 125 g ai/ha
  Morningglory plant response rating (0 to 100 scale): 0
[13]; [20]
  Morningglory plant response rating: 10
[14]; [22]
  Plant response rating (0 to 100), Chickweed: 20
[14]; [23]
  Chickweed plant response rating: 60
[14]; [24]
  Plant response rating, Chickweed: 50
[14]; [25]
  Plant response rating, Chickweed: 60
[15]; 125 g ai/ha
  Foxtail, Giant plant response rating (0 to 100 scale): 100
[15]; [20]
  Foxtail, Giant plant response rating: 100

## Clc1cnc(Oc2cccc(Cl)c2-n2cc(Cl)cn2)nc1 [Compound 220]
[1]
  Plant response rating, Barnyardgrass: 0
[2]; 125 g ai/ha
  Pigweed plant response rating (0 to 100 scale): 100
[2]; [20]
  Pigweed plant response rating: 100
[3]; [16]
  Morningglory plant response rating: 50
[3]; [21]
  Plant response rating, Morningglory: 100
[4]; [22]
  Plant response rating (0 to 100), Foxtail, Giant: 0
[4]; [23]
  Foxtail, Giant plant response rating: 5
[4]; [24]
  Plant response rating, Foxtail, Giant: 5
[4]; [25]
  Plant response rating, Foxtail, Giant: 10
[5]; [22]
  Plant response rating (0 to 100), Corn: 5
[5]; [23]
  Corn plant response rating: 10
[5]; [24]
  Plant response rating, Corn: 10
[5]; [25]
  Plant response rating, Corn: 10
[6]; 125 g ai/ha
  Barnyardgrass plant response rating (0 to 100 scale, 0 is no effect, 100 is complete control): 60
[6]; [20]
  Barnyardgrass plant response rating: 100
[7]; [22]
  Plant response rating (0 to 100), Ryegrass, Italian: 0
[7]; [23]
  Ryegrass, Italian plant response rating: 0
[7]; [24]
  Plant response rating, Ryegrass, Italian: 10
[7]; [25]
  Plant response rating, Ryegrass, Italian: 5
[8]; [16]
  Pigweed plant response rating: 100
[8]; [21]
  Plant response rating, Pigweed: 100
[9]
  Plant response rating, Sedge, Umbrella: 90
[10]; [22]
  Plant response rating (0 to 100), Crabgrass, Large: 5
[10]; [23]
  Crabgrass, Large plant response rating: 5
[10]; [24]
  Plant response rating, Crabgrass, Large: 5
[10]; [25]
  Plant response rating, Crabgrass, Large: 5
[11]; [22]
  Plant response rating (0 to 100), Blackgrass: 0
[11]; [23]
  Blackgrass plant response rating: 60
[11]; [24]
  Plant response rating, Blackgrass: 50
[11]; [25]
  Plant response rating, Blackgrass: 40
[12]; [22]
  Plant response rating (0 to 100), Johnsongrass: 5
[12]; [23]
  Johnsongrass plant response rating: 0
[12]; [24]
  Plant response rating, Johnsongrass: 5
[12]; [25]
  Plant response rating, Johnsongrass: 5
[13]; 125 g ai/ha
  Morningglory plant response rating (0 to 100 scale): 0
[13]; [20]
  Morningglory plant response rating: 40
[14]; [22]
  Plant response rating (0 to 100), Chickweed: 65
[14]; [23]
  Chickweed plant response rating: 70
[14]; [24]
  Plant response rating, Chickweed: 80
[14]; [25]
  Plant response rating, Chickweed: 80
[15]; 125 g ai/ha
  Foxtail, Giant plant response rating (0 to 100 scale): 100
[15]; [20]
  Foxtail, Giant plant response rating: 100
